This is an account of results in US11446352B2, “Compositions and methods for inhibiting tumor-induced immune suppression” (priority 2017, dated 2022).

In assay [1] the test system is KB-3-1 cervix carcinoma. The settings on record: cited from earlier work.
The conditions of assay [2]: preclinical studies; cited from earlier work.
The test system of assay [3] is AB1-HA tumor. The settings on record: CTX treatment at Day 9; cited from earlier work.
The subject of assay [4] is Hsp90 chaperoning machine. In words: progesterone receptor (PR) refolding assay using reticulocyte lysate (RRL). It is filed as biochemical. The settings on record: protein complex analysis; 10 μM EnnA, 1 μM 17-AAG. The source says:
(§1) The first bar indicates 100% folding activity of RRL without inhibitor. PR22 indicates the antibody without PR but with RRL and EnnA. PR represents the antibody (PR22) with PR but without RRL. All other samples have PR22, PR, and RRL without (first bar) or with increased concentration of EnnA. FIGS. 1C-1E are line graphs of cell survival versus EnnA concentration (μM) in breast cancer cell lines Hs578T (FIG. 1C), […] (FIG. 1D) and MDA-MB231 (FIG. 1E) upon treatment with EnnA for 48 and 72 h. […] PR alone (PR), antibody (PR22)+RRL, PR+RRL without inhibitor (RRL), PR+RRL with 1 μM 17-AAG (17AAG) PR+RRL with 10 μM BEAU or EnnA. FIGS. 1G-1I are autoradiographs of Western blots of cytosols from various cell lines treated with 17-AAG (1 μM) or EnnA (3 μM) with antibodies against the specified proteins. FIG. 1J is an autoradiograph showing EnnA causes autophagy in Hs578T and MDA-MB453 cell lines. FIGS. 1K-1N are electron microscopy micrographs showing autophagosomes and reduced mitochondria content in Hs578T cells treated with DMSO or EnnA. FIGS. 1O-1P are fluorescence micrographs showing EnnA causing reduced mitochondria content in Hs578T cells. FIGS. 1Q-1BB are fluorescence micrographs showing mitophagy in Hsp578T cells treated with EnnA as indicated by colocalization of the mitochondria marker Cox4 and the autophagy marker LC3BII.
A cell-free high-throughput screen (HTS) platform based on the progesterone receptor (PR) using reticulocyte lysate (RRL) as a source of molecular chaperones was used to screen 175 natural products (Patwardhan C A, et al., J Biomol Screen (2014)). This assay captures the physiological steps of PR refolding by the Hsp90 chaperoning machine and measures the recovery of its hormone-binding activities after mild heat treatment. It has the ability to identify inhibitors as well as activators of the core components of the Hsp90 chaperoning machine (i.e., Hsp90, Hsp70, Hsp40, Hsp90/Hsp70 organizing protein (HOP), and p23), including compounds that target chaperone complexes as well as individual proteins.

In assay [5] the test system is Hs587T and MDA-MB-453 cell lines. Nature of the assay: autophagy, mitochondria content and mitophagy in treated cancer cells. In kind it is cell-based, human. The settings on record: Hs587T and MDA-MB-453 cell lines.
Excerpt: as §1

As for `CC(C)[C@H]1C(=O)O[C@H](C(C)C)C(=O)N(C)[C@@H](C(C)C)C(=O)O[C@H](C(C)C)C(=O)N(C)[C@@H](C(C)C)C(=O)O[C@H](C(C)C)C(=O)N1C` [Enniatin B], in assay [1], the “reduction of tumor growth in combination with sorafenib” value was “synergizes with sorafenib”. In assay [2], the anti-angiogenic activity result is on record as “anti-angiogenic activity”.

With `O=P1(N(CCCl)CCCl)NCCCO1` (centres unmarked) [CTX, Cyclophosphamide], the cure rate in assay [3] was 75%. Take `C=CCNC1=C2C[C@@H](C)C[C@H](OC)[C@H](O)[C@@H](C)/C=C(\C)[C@H](OC(N)=O)[C@@H](OC)/C=C\C=C(/C)C(=O)NC(=CC1=O)C2=O` [17-AAG, reference compound]: in assay [4], the “accumulation of Hsp70-rich PR complexes” value was “observed”. In addition, the “mode of cell death (apoptosis / autophagy)” value in assay [5] is on record as “induces apoptosis”.
